Assay results as given in US12083165B2, “Thymosin alpha 1 for use in treatment of cystic fibrosis” (SciClone Pharmaceuticals International (SG) PTE. LTD., priority 2015, dated 2024).

How the values were obtained:
ΔF508 CFTR = ΔF508 CFTR (Homo sapiens, UniProt P13569, DEL508-508); assay: Immunoblot of purified plasma membrane (PM) fraction for CFTR; assay type: cell-based; settings: 100 ng/ml Tα1, plasma membrane fraction
Procedure: CFTR Immunoblot Analysis. Immunoblot techniques using the anti-CFTR antibody (clone CF3, Abcam) were used to measure CFTR maturation in FRT, HEK-293, or HBE cells expressing CFTR or F508del-CFTR (34). After incubation, cells were harvested in ice-cold D-PBS solution (without calcium and magnesium) and pelleted at 1,000×g at 4° C. Cell pellets were lysed in 1% Nonidet P-40, 0.5% sodium deoxycholate, 200 mM NaCl, 10 mM Tris, pH 7.8, and 1 mM EDTA plus protease inhibitor mixture (1:250; Roche) for 30 min on ice. Lysates were spun for 10 min at 10,000×g at 4° C. to pellet nuclei and insoluble material. Approximately 12 μg total protein was heated in Laemmli buffer with 5% β-mercaptoethanol at 37° C. for 5 min and loaded onto a 3% to 8% Tris-acetate gel (Invitrogen). […] LiteAblotPlus chemiluminescence substrate (Euroclone S.p.A.), using ChemiDoc™ XRS+ Imagig system (Bio-Rad Laboratories) and blot quantification was obtained by densitometry image analysis using Image Lab 3.1.1 software (Bio-Rad).
The SV40 transformed CF airway epithelial cell line (CFBE41o−), homozygous for the ΔF508-CFTR mutation, was used (32). […] CFTR bands were quantified by densitometry and expressed as the C/B ratio. […] Densitometric measurement of the CFTR (C band) at the PM was expressed as CFTR PM/CFTR total ratio (Panel C, FIG. 2).

[1] = tested on: A. fumigatus-infected C57BL/6 and Cftr−/− mice; assay: Lung inflammatory pathology and cell recruitment in Aspergillus-infected mice; assay type: in vivo; settings: 200 μg/kg/i.p. daily for 6 days, 7 days post-infection
Procedure: (§1) Mice. Wild-type (WT) inbred C57BL6 mice, 8 to 12 weeks old, were purchased from Charles River Breeding Laboratories (Calco, Italy). Genetically engineered homozygote Cftr^−/− mice (33) were bred at the Cystic Fibrosis core animal facility at San Raffaele Hospital, Milan, Italy. Experiments were performed following protocols approved by the institutional animal committee and in accordance with European Economic Community Council Directive as well as institutional animal care and use guidelines.
Infection and treatments. Mice were anesthetized by i.p. injection of 2.5% avertin (Sigma Chemical Co, St. Louis, MO) before intranasal instillation of 2×10^7 A. fumigatus (Af293) resting conidia/20 μl saline. For histology, paraffin-embedded tissue were stained with Periodic acid-Schiff (PAS), and BAL fluid collection was done as described (21, 22). […]
Aspergillus-infected mice were treated with 200 μg/kg/i.p. daily of Tα1 for 6 consecutive days beginning the day of the infection. Mice were monitored for lung inflammatory pathology and cell recruitment at 7 days post-infection. […] Differential cell count of mononuclear (MNC), polymorphonuclear (PMN) cells and eosinophils (EOS) was determined upon May Grunwald Giemsa staining. […]

[2] = tested on: A. fumigatus-infected C57BL/6 and Cftr−/− mice; assay: Th cytokines in lungs and transcription factors in draining thoracic lymph nodes (ELISA or RT-PCR); assay type: in vivo
Procedure: as §1
Infection and treatments. Mice were anesthetized by i.p. injection of 2.5% avertin (Sigma Chemical Co, St. Louis, MO) before intranasal instillation of 2×10^7 A. fumigatus (Af293) resting conidia/20 μl saline. For histology, paraffin-embedded tissue were stained with Periodic acid-Schiff (PAS), and BAL fluid collection was done as described (21, 22). Treatments were as follow: Tα1 and the scrambled polypeptide were supplied as purified (the endotoxin levels were <0.03 pg/ml, by a standard limulus lysate assay) sterile, lyophilized, acetylated polypeptide. The sequences were as follows: Ac-[…]O (Tα1) (SEQ ID NO:1) and Ac-[…]OH (scrambled peptide) (SEQ ID NO:2). The lyophilized powders were reconstituted in sterile water and 200 μg/kg/i.p. were given daily for 6 consecutive days beginning the day of the infection.
Reverse transcriptase-polymerase chain reaction (RT-PCR). Total RNA extraction and synthesis and PCR of cDNA were done on total lung cells as described (21, 22). Amplification efficiencies were validated and normalized against Gapdh. The thermal profile for SYBR Green real-time PCR was at 95° C. for 3 min, followed by 40 cycles of denaturation for 30 s at 95° C. and an annealing/extension step of 30 s at 60° C. Each data point was examined for integrity by analysis of the amplification plot. The mRNA-normalized data were expressed as relative mRNA in treated cells compared to that of unstimulated cells.
Cytokine determination by ELISA. Cytokine levels in lung homogenates from treated and untreated mice were determined by cytokine-specific ELISA (R&D Systems, Inc. Space Import-Export srl, Milan, Italy) as described (21, 22)
The inflammatory Th17 pathway is involved in CF lung inflammation (21, 22, 43) while the Th2 pathway is associated with CF fungal allergy (44). For the assessment of the effects of Tα1 on Th cell activation, levels of Th cytokines in the lungs and of the corresponding transcription factors in the draining thoracic lymph nodes have been measured in C57BL/6 and Cftr^−/− mice infected and treated with Tα1 as above. Tα1 decreased Th17 (decreased levels of IL-17A and of the Th17 transcription factor Rorc), Th2 (low IL-4 and Gata3) cell activation while promoting both Th1 (increased IFN-γ and Tbet) and Treg (increased IL-10 and Foxp3) cell activity. […] The cytokine levels were assessed in lung homogenates (by ELISA or RT-PCR) and the expression of the corresponding Th transcription factors (by RT-PCR) in the draining thoracic lymph nodes. The results shown represent pooled data from two experiments. n.d. not done. *P<0.05; **P<0.01; ***P<0.001.

[3] = draining thoracic lymph nodes, RT-PCR

Sequence of ΔF508 CFTR (P13569 with tags, fused parts or gaps DEL508-508): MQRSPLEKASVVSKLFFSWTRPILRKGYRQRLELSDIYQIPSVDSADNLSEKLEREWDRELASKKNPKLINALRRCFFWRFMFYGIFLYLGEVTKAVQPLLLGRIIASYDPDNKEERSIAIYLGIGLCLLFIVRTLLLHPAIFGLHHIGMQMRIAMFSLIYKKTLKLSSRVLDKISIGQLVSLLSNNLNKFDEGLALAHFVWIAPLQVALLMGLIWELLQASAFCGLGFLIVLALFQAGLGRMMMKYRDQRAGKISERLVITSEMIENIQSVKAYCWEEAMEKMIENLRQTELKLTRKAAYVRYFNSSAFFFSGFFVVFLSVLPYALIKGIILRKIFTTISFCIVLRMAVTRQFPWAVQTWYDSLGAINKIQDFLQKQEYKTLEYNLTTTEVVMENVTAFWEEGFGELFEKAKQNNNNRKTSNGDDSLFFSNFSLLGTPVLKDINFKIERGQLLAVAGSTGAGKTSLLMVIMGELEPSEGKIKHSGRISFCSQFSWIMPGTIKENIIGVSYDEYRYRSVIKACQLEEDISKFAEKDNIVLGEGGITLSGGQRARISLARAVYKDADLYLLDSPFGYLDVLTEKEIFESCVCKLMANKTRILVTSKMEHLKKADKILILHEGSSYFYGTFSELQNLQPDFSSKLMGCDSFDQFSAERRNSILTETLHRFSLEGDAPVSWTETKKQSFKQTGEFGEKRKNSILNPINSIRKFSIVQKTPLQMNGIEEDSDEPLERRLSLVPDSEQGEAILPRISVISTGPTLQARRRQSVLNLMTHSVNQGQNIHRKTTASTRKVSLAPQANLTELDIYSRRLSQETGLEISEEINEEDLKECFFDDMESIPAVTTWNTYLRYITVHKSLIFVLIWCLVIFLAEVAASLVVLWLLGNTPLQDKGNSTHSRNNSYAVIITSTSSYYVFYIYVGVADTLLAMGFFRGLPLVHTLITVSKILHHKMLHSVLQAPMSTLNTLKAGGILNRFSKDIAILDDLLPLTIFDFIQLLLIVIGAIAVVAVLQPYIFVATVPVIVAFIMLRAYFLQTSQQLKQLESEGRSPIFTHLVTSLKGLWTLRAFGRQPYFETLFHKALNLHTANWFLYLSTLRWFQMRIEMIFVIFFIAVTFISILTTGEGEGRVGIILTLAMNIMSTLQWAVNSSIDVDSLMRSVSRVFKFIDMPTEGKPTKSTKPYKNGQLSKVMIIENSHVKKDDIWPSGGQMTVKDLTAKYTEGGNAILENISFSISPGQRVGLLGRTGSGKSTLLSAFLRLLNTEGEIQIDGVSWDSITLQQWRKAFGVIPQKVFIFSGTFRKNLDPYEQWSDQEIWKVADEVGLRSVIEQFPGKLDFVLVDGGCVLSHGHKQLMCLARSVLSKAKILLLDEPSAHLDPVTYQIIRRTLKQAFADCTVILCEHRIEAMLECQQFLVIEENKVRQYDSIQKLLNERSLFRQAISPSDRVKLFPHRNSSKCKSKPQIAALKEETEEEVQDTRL

Ac-Ser-Asp-Ala-Ala-Val-Asp-Thr-Ser-Ser-Glu-Ile-Thr-Thr-Lys-Asp-Leu-Lys-Glu-Lys-Lys-Glu-Val-Val-Glu-Glu-Ala-Glu-Asn-O (Ac-SDAAVDTSSEITTKDLKEKKEVVEEAEN-OH; not fully specified; printed as Ac-Ser-Asp-Ala-Ala-Val-Asp-Thr-Ser-Ser-Glu-Ile-Thr-Thr-Lys-Asp-Leu-Lys-Glu-Lys-Lys-Glu-Val-Val-Glu-Glu-Ala-Glu-Asn-O; listed as Homo sapiens) [Tα1, naturally occurring polypeptide of 28 amino acid; supplied as purified sterile, lyophilized, acetylated polypeptide]
expression of ΔF508 CFTR at PM (CFTR PM/CFTR total ratio) (ΔF508 CFTR): increased
local inflammatory cell recruitment and lung pathology (lung and BAL) ([1]; C57/BL6 mice): significantly decreased
local inflammatory cell recruitment and lung pathology (lung and BAL) ([1]; Cftr−/− mice): significantly decreased
Foxp3 expression (Treg) [2, 3]: increased
Gata3 expression (Th2) [2, 3]: low
Tbet expression (Th1) [2, 3]: increased
Th17 transcription factor Rorc expression [2, 3]: decreased
IFN-γ level (Th1) ([2]; lung homogenates): increased
IL-4 level (Th2) ([2]; lung homogenates): low
IL-10 level (Treg) ([2]; lung homogenates): increased
IL-17A level (Th17) ([2]; lung homogenates, infected and Tα1-treated C57BL/6 and Cftr−/− mice): decreased
